Peptide text beside a SMILES is read from it. * marks the point of attachment. Cbz = O=C(OCc1ccccc1)*; CH2F = FC*
Key:
Type in all cases: cell-based
LNCaP cells = assay: Androgen/anti-androgen treatment of LNCaP cells, Western blot of AMACR and PSA; details: LNCaP cells exposed to synthetic androgen, 1 nM, 24 and 48 h
Description: Prostate cell lines (RWPE-1, LNCaP, PC3 and DU145) were obtained from the American Tissue Culture Collection. Cells were maintained in RPMI-1640 with 8% decomplemented fetal bovine serum, 0.1% glutamine and 0.1% penicillin and streptomycin (BioWhittaker, Walkersville, Md.). Cells were grown to 75% confluence and then treated for 24 and 48 with the antiandrogen bicalutamide (CASODEX, Zeneca Pharmaceuticals, Plankstadt, Germany) at a final concentration of 20 μM or with methyltrienolone (synthetic androgen (R1881); NEN, Life Science Products, Boston, Mass.) at a final concentration of 1 nM. Cells were harvested and lysed in NP-40 lysis buffer containing 50 mmol/L Tris-HCl, pH 7.4, 1% Nonidet P-40 (Sigma, St. Louis, Mo.) and complete proteinase inhibitor cocktail (Roche, Ind., USA). 15 μg of protein extracts were mixed with SDS sample buffer and electrophoresed onto a 10% SDS-polyacrylamide gel under reducing conditions. After transferring, the membranes (Amersham Pharmacia Biotech, Piscataway, N.J.) were incubated for 1 hour in blocking buffer (Tris-buffered saline with 0.1% Tween and 5% nonfat dry milk). The AMACR antibody was applied at 1:10.000 diluted blocking buffer overnight at 4° C. […]

HDAC activity = assay: DNA microarray of EZH2-transfected cells, EZH2-mediated gene silencing
Source text: Other molecules have been similarly tested with this approach. Cells were transfected with different EZH2 constructs and transfection efficiency was monitored by beta-galactosidase assay and was approximately 30-50%. EZH2.SET mutant expressing samples were compared to EZH2 expressing samples using the SAM analysis package (Tusher et al., PNAS 98:5116 [2001]). Data was pre-processed by multiplication by a normalization factor to adjust the aggregate ratio of medians to one, log base 2 transformed and median centered each array, individually. This pre-processed data was divided into 2 groups for comparison using a two-class, unpaired t-test. […] These 161 genes were supplemented by the values for EZH2 and then analyzed using Cluster implementing average linkage hierarchical clustering of genes. […]
PcG proteins have been proposed to mediate their functions by repression of target genes (Laible et al., supra; Jacobs et al., Semin Cell Dev. Biol. 10:227 [1999]). To begin to test this hypothesis, RWPE prostate cells were transiently transfected with wild-type EZH2 and global gene expression alterations were monitored using DNA microarrays. […]

prostate cells = assay: WST-1 cell proliferation assay after siRNA transfection; details: WST-1, caspase inhibitor added to EZH2 siRNA treated cells
Description: 21-nucleotide sense and antisense RNA oligonucleotides were chemically synthesized (Dharmacon Research Inc.) and annealed to form duplexes. The siRNA employed in the study were targeted to the region corresponding from 85 to 106 of the reported human EZH2 (NM004456). Control siRNA duplexes targeted luciferase, lamin and AMACR (NM014324). The human transformed prostate cell line RWPE (Webber et al., Carcinogenesis 18:1225 [1997]) and PC3 were plated at 2×10^5 cells per well in a 12 well plate (for immunoblot analysis, cell counts, and fluorescence activated cell sorting (FACS) analysis) and 1.5×10^4 cell per well in a 96 well plate (for WST-1 proliferation assays). Twelve hours after plating, the cells were transfected with 60 picomoles of siRNA duplex, sense or antisense oligonucleotides (targeting EZH2) using oligofectamine (Invitrogen). […] Cell viability was assessed 60 hours after the initial transfection.
Cell proliferation was determined with the colorimetric assay of cell viability, based on the cleavage of tetrazolium salt WST-1 by mitochondrial dehydrogenases as per manufacturers instructions (Roche, Inc.). The absorbance of the formazan dye formed, which directly correlates with the number of metabolically active cells in the culture, was measured at 450 nm (Bio-Tek instruments), an hour after the addition of the reagent. […]

SMILES: C[C@]1(O)CC[C@H]2[C@@H]3CCC4=CC(=O)CCC4=C3C=C[C@@]21C [R1881, methyltrienolone]
- AMACR expression (LNCaP cells): no increase in AMACR expression

SMILES: CC(/C=C/C(=O)NO)=C\[C@@H](C)C(=O)c1ccc(N(C)C)cc1 [trichostatin A]
- effect on EZH2-mediated gene silencing (HDAC activity): completely abrogated the effects of EZH2

SMILES: COC(=O)C[C@H](NC(=O)[C@H](C)NC(=O)[C@@H](NC(=O)OCc1ccccc1)C(C)C)C(=O)CF [z-VAD-fmk] (Cbz-Val-Ala-Asp(OMe)-CH2F)
- attenuation of EZH2 siRNA induced inhibition of cell proliferation (prostate cells): failed to attenuate

— patent US7332290B2, “Dectection of AMACR cancer markers in urine” (The Regents of the University of Michigan, priority 2001, dated 2008)
